# Where two headings read alike, the source gives them in different places.
# Columns and labels:
# Format in all cases: cell-based
# [1] = target: T1, 168 GPCRs (Homo sapiens, UniProt P25024)
# T1 construct: host or cells: PathHunter cell lines
# T1 sequence (P25024 1-350): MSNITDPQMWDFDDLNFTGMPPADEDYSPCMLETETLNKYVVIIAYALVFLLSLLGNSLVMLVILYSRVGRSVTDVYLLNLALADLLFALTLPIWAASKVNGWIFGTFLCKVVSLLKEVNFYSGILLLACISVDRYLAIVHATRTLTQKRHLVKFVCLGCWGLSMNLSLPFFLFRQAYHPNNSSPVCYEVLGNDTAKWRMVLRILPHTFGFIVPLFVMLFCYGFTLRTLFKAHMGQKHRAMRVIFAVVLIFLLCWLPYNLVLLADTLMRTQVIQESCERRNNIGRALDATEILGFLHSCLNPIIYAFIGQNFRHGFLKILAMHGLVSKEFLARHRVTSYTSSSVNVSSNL
# [2] = target: T2, 168 GPCRs (Homo sapiens, UniProt P08173)
# T2 construct: host or cells: PathHunter cell lines
# T2 sequence (P08173 1-479): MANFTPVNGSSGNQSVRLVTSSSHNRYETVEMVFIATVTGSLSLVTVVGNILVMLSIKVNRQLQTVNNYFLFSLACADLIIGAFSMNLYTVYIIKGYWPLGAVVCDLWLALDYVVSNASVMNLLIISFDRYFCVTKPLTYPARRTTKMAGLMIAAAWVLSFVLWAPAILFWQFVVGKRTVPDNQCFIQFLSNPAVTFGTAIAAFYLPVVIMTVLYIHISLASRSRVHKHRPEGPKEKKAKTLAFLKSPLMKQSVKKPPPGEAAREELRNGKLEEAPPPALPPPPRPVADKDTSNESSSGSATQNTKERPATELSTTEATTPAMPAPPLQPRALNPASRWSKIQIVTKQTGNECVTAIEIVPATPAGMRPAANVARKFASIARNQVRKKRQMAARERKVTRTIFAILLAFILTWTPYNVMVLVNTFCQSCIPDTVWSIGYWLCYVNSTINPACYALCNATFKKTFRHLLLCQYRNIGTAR
# [3] = target: T3, 168 GPCRs (Homo sapiens, UniProt P08912)
# T3 construct: host or cells: PathHunter cell lines
# T3 sequence (P08912 1-532): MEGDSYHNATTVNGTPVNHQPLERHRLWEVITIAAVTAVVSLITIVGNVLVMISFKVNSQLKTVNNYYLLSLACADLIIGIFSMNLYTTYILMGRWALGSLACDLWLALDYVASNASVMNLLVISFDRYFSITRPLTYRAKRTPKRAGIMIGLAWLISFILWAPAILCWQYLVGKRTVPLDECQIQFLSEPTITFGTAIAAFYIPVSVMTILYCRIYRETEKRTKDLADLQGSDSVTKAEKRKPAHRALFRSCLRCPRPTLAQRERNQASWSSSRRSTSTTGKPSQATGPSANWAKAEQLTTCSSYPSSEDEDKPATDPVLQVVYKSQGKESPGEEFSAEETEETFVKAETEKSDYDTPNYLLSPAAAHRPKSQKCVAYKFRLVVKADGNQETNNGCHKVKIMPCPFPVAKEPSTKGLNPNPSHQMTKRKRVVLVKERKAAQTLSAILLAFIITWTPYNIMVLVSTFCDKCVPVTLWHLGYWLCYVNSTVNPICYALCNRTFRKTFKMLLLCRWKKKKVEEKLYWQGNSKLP
# [4] = target: T4, 168 GPCRs (Homo sapiens, UniProt Q969F8); conditions: KISS1R
# T4 construct: host or cells: PathHunter cell lines
# [5] = target: T5, 168 GPCRs (Homo sapiens, UniProt Q969V1)
# T5 construct: host or cells: PathHunter cell lines
# [6] = target: T6, 168 GPCRs (Homo sapiens, UniProt P08588)
# T6 construct: host or cells: PathHunter cell lines
# [7] = target: T7, 168 GPCRs (Homo sapiens, UniProt P08913); conditions: ADRA2A
# T7 construct: host or cells: PathHunter cell lines
# T7 sequence (P08913 1-465): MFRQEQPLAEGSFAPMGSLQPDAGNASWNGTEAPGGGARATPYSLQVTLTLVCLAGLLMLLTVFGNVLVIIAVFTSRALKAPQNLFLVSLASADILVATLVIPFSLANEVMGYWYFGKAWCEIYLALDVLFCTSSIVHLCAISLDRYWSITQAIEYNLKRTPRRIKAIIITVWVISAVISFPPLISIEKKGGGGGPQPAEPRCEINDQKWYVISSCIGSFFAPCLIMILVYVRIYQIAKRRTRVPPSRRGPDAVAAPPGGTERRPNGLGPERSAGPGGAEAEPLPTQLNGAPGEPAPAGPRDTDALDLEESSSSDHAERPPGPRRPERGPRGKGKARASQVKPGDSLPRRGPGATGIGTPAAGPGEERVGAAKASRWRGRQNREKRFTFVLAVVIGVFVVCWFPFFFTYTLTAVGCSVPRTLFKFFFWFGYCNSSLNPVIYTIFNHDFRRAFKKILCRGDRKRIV
# T6 sequence (P08588 whole entry): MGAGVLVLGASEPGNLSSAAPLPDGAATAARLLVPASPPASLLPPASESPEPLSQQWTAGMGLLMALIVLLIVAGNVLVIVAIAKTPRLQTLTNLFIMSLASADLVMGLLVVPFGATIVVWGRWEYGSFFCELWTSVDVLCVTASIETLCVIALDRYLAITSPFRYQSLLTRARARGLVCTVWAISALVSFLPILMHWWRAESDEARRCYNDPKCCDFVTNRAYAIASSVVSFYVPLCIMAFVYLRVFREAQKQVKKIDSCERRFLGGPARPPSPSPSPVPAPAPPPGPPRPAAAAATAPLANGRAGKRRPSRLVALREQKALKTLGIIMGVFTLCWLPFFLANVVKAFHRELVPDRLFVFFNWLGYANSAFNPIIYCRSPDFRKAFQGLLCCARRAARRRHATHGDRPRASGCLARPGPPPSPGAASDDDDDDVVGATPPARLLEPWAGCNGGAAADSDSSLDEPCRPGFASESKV
# T5 sequence (Q969V1 whole entry): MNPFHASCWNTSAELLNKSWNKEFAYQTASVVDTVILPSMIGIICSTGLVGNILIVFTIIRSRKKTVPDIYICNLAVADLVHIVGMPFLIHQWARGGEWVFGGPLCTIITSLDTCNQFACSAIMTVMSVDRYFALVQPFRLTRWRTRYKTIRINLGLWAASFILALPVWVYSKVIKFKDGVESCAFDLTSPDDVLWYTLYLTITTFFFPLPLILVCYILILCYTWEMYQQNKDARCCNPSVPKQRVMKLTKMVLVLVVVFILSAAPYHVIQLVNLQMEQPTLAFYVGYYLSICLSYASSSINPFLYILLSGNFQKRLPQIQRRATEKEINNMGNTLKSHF
# T4 sequence (Q969F8 whole entry): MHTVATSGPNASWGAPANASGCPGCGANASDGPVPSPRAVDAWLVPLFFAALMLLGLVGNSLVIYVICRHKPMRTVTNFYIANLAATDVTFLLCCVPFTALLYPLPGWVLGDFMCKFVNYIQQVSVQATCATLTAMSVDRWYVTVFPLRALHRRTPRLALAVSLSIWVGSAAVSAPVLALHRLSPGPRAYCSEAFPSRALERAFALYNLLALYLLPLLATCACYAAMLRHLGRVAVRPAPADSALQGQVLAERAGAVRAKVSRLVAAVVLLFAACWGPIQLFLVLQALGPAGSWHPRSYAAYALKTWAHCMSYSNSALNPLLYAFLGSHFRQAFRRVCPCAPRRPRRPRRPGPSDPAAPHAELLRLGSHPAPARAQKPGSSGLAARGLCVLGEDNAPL
compound,measurement,setting,value
CNC(C)C(=O)c1ccc2c(c1)OCO2 (centres unmarked) [methylone],% Agonist Activity,"[1]; CXCR1, 1 uM",-0.5%
same,% Antagonist Activity,"[1]; CXCR1, 1 uM",12.1%
same,% Agonist Activity,"[1]; CXCR1, 10 uM",-0.1%
same,% Antagonist Activity,"[1]; CXCR1, 10 uM",3.1%
same,% Agonist Activity,"[2]; CHRM4, 1 uM",-5.8%
same,% Antagonist Activity,"[2]; CHRM4, 1 uM",10.2%
same,% Agonist Activity,"[2]; CHRM4, 10 uM",-6.2%
same,% Antagonist Activity,"[2]; CHRM4, 10 uM",6.7%
same,% Agonist Activity,"[3]; CHRM5, 1 uM",7.2%
same,% Antagonist Activity,"[3]; CHRM5, 1 uM",-8%
same,% Agonist Activity,"[3]; CHRM5, 10 uM",8.7%
same,% Antagonist Activity,"[3]; CHRM5, 10 uM",-7.6%
same,% Agonist Activity,[4]; 1 uM,-5.5%
same,% Antagonist Activity,[4]; 1 uM,28.7%
same,% Agonist Activity,[4]; 10 uM,-3.7%
same,% Antagonist Activity,[4]; 10 uM,14.5%
same,% Agonist Activity,"[5]; MCHR2, 1 uM",-1.5%
same,% Antagonist Activity,"[5]; MCHR2, 1 uM",2%
same,% Agonist Activity,"[5]; MCHR2, 10 uM",-0.7%
same,% Antagonist Activity,"[5]; MCHR2, 10 uM",-4.5%
same,% Agonist Activity,"[6]; ADRB1, 1 uM",-1.7%
same,% Antagonist Activity,"[6]; ADRB1, 1 uM",-0.8%
same,% Agonist Activity,"[6]; ADRB1, 10 uM",-1.4%
same,% Antagonist Activity,"[6]; ADRB1, 10 uM",-1.2%
same,% Agonist Activity,[7]; 1 uM,-3.8%
same,% Antagonist Activity,[7]; 1 uM,-4.6%
same,% Agonist Activity,[7]; 10 uM,-3.8%
same,% Antagonist Activity,[7]; 10 uM,1.9%
"CNC(C)Cc1ccc2c(c1)OCO2 (centres unmarked) [MDMA, 3,4-Methylenedioxy methamphetamine, reference compound]",% Agonist Activity,"[1]; CXCR1, 1 uM",-0.4%
same,% Antagonist Activity,"[1]; CXCR1, 1 uM",-2.4%
same,% Agonist Activity,"[1]; CXCR1, 10 uM",-0.3%
same,% Antagonist Activity,"[1]; CXCR1, 10 uM",-4.6%
same,% Agonist Activity,"[2]; CHRM4, 1 uM",-1.8%
same,% Antagonist Activity,"[2]; CHRM4, 1 uM",32.8%
same,% Agonist Activity,"[2]; CHRM4, 10 uM",-3.2%
same,% Antagonist Activity,"[2]; CHRM4, 10 uM",26.3%
same,% Agonist Activity,"[3]; CHRM5, 1 uM",8.8%
same,% Antagonist Activity,"[3]; CHRM5, 1 uM",11.2%
same,% Agonist Activity,"[3]; CHRM5, 10 uM",8.3%
same,% Antagonist Activity,"[3]; CHRM5, 10 uM",14.4%
same,% Agonist Activity,[4]; 1 uM,-4.8%
same,% Antagonist Activity,[4]; 1 uM,-13.9%
same,% Agonist Activity,[4]; 10 uM,-4.3%
same,% Antagonist Activity,[4]; 10 uM,1.8%
same,% Agonist Activity,"[5]; MCHR2, 1 uM",0.8%
same,% Antagonist Activity,"[5]; MCHR2, 1 uM",-25%
same,% Agonist Activity,"[5]; MCHR2, 10 uM",0.3%
same,% Antagonist Activity,"[5]; MCHR2, 10 uM",-17.3%
same,% Agonist Activity,"[6]; ADRB1, 1 uM",0.6%
same,% Antagonist Activity,"[6]; ADRB1, 1 uM",2%
same,% Agonist Activity,"[6]; ADRB1, 10 uM",0.5%
same,% Antagonist Activity,"[6]; ADRB1, 10 uM",1.9%
same,% Agonist Activity,[7]; 1 uM,7%
same,% Antagonist Activity,[7]; 1 uM,-5%
same,% Agonist Activity,[7]; 10 uM,6.5%
same,% Antagonist Activity,[7]; 10 uM,-13.9%

# Reference: PMC10882719 (Frontiers in Neuroscience, 2024)
